Measured values published in ChEMBL document CHEMBL4765470 (J Med Chem, 2021).
Starred links: 1 amine or outer side, 2 acyl side, 3 side chain; linkers in the order of their positions; H or OH if unused. Non-standard residues stand in square brackets, D forms with d. Residues, ends and D or L forms follow the SMILES beside them. *: point of attachment. γ4hPhe = O=C(CC[C@H](Cc1ccccc1)N[*:1])[*:2]; β3hPhg = O=C(C[C@@H](N[*:1])c1ccccc1)[*:2]; X1 = O=C([C@]1(Cc2ccccc2)CCCN1[*:1])[*:2]; 1Nal = N[C@@H](Cc1cccc2ccccc12)C(=O)O; 2Nal = N[C@@H](Cc1ccc2ccccc2c1)C(=O)O; αMeF = C[C@](N)(Cc1ccccc1)C(=O)O; β3hF = N[C@H](CC(=O)O)Cc1ccccc1; Cha = N[C@@H](CC1CCCCC1)C(=O)O; Tle = CC(C)(C)[C@H](N)C(=O)O; Nle = CCCC[C@H](N)C(=O)O; Ac5c = NC1(C(=O)O)CCCC1; Bn = c1ccc(C*)cc1

Legend:
[1] = biological target: T1, Apelin receptor (Homo sapiens, UniProt P35414); test: Displacement of [125I] [NIe75, Tyr77]Pyr-apelin-13 from YFP-tagged human APJ receptor expressed in HEK293 cell membranes incubated for 1 hr by gamma counting based Cheng-Prusoff equation analysis
T1 sequence (P35414 whole entry): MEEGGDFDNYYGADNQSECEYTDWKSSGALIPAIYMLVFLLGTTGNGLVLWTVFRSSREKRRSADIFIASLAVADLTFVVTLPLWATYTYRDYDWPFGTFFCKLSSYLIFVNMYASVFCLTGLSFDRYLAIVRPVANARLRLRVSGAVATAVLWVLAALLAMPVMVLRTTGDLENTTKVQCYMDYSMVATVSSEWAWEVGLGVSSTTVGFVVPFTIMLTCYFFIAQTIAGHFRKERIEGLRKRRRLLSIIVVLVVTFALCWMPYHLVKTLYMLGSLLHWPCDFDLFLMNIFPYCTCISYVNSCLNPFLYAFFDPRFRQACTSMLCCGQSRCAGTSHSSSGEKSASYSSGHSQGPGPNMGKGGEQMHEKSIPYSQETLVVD

[2] = biological target: T1, Apelin receptor; test: Agonist activity at human APJ receptor expressed in HEK293 cells co-expressing Galpha(i1)-RlucII(91) assessed as induction of dissociation of Galpha(i1) from G-beta-gamma subunits incubated for 5 mins by BRET assay; assay type: cell-based
[3] = biological target: T1, Apelin receptor; test: Agonist activity at human APJ receptor expressed in HEK293T cells co-expressing PDZ-Rho-Gef-RLucll assessed as induction of Galpha12 effector (PDZ-RhoGEF) to the cell membrane incubated for 5 mins by BRET assay; assay type: functional, cell-based
[4] = biological target: T1, Apelin receptor; test: Agonist activity at human APJ receptor expressed in HEK293 cells co-expressing Rlucll-beta-arrestin2 assessed as induction of beta-arrestin2 recruitment to APJ incubated for 30 mins by BRET assay; assay type: cell-based

| SMILES | Ki [1] [nM] | EC50 [2] [nM] | EC50 [3] [nM] | EC50 [4] [nM] |
| --- | --- | --- | --- | --- |
| CCCC[C@H](N)C(=O)N1CCC[C@H]1C(=O)N[C@@H](CC(C)C)C(=O)N[C@@H](Cc1cnc[nH]1)C(=O)N[C@@H](CO)C(=O)N[C@@H](CCCNC(=N)N)C(=O)N[C@H](C(=O)N1CCC[C@H]1C(=O)N[C@@H](Cc1ccccc1)C(=O)N[C@@H](Cc1cccc2ccccc12)C(=O)O)C(C)C (H-[Nle]PLHSRVPF[1Nal]-OH) | 13 | 4.5 | 30 | 123 |
| CCCC[C@H](N)C(=O)N1CCC[C@H]1C(=O)N[C@@H](CC(C)C)C(=O)N[C@@H](Cc1cnc[nH]1)C(=O)N[C@@H](CO)C(=O)N[C@@H](CCCNC(=N)N)C(=O)N[C@H](C(=O)N1CCC[C@H]1C(=O)N[C@@H](Cc1cccc2ccccc12)C(=O)N1CCC[C@H]1C(=O)O)C(C)C (H-[Nle]PLHSRVP[1Nal]P-OH) | 21 | 23 | 1040 | 537 |
| CCCC[C@H](N)C(=O)N1CCC[C@H]1C(=O)N[C@@H](CC(C)C)C(=O)N[C@@H](Cc1cnc[nH]1)C(=O)N[C@@H](CO)C(=O)N[C@@H](CCCNC(=N)N)C(=O)N[C@H](C(=O)N1CCC[C@H]1C(=O)N[C@@H](Cc1ccccc1)C(=O)N[C@@H](Cc1ccc2ccccc2c1)C(=O)O)C(C)C (H-[Nle]PLHSRVPF[2Nal]-OH) | 3.9 | 3.8 | 37 | 107 |
| CCCC[C@H](N)C(=O)N1CCC[C@H]1C(=O)N[C@H](C(=O)N[C@@H](Cc1cnc[nH]1)C(=O)N[C@@H](CO)C(=O)N[C@@H](CCCNC(=N)N)C(=O)N[C@H](C(=O)N1CCC[C@H]1C(=O)N[C@@H](Cc1ccccc1)C(=O)N1CCC[C@H]1C(=O)O)C(C)C)[C@@H](C)CC (H-[Nle]PIHSRVPFP-OH) | 16 | 5.8 | 141 | 370 |
| CCCC[C@H](N)C(=O)N1CCC[C@H]1C(=O)N[C@H](C(=O)N[C@@H](Cc1cnc[nH]1)C(=O)N[C@@H](CO)C(=O)N[C@@H](CCCNC(=N)N)C(=O)N[C@H](C(=O)N1CCC[C@H]1C(=O)N[C@@H](Cc1ccccc1)C(=O)N1CCC[C@H]1C(=O)O)C(C)C)C(C)(C)C (H-[Nle]P[Tle]HSRVPFP-OH) | 21 | 2.4 | 795 | 401 |
| CCCC[C@H](N)C(=O)N1CCC[C@H]1C(=O)N[C@@H](CC(C)C)C(=O)N[C@@H](Cc1cnc[nH]1)C(=O)N[C@@H](CO)C(=O)N[C@@H](CCCNC(=N)N)C(=O)N[C@H](C(=O)N1CCC[C@H]1C(=O)N[C@H](CC(=O)O)Cc1ccccc1)C(C)C (H-[Nle]PLHSRVP[β3hF]-OH) | 19 | 5.1 | 740 | 182 |
| CCCC[C@H](N)C(=O)N1CCC[C@H]1C(=O)N[C@@H](CC(C)C)C(=O)N[C@@H](Cc1cnc[nH]1)C(=O)N[C@@H](CO)C(=O)N[C@@H](CCCNC(=N)N)C(=O)N[C@H](C(=O)N1CCC[C@H]1C(=O)N[C@@H](Cc1ccccc1)C(=O)N[C@@H](Cc1ccc(OCc2ccccc2)cc1)C(=O)O)C(C)C (H-[Nle]PLHSRVPFY(Bn)-OH) | 19 | 19 | 1520 | 381 |
| CCCC[C@H](N)C(=O)N1CCC[C@H]1C(=O)N[C@@H](CC(C)C)C(=O)N[C@@H](Cc1cnc[nH]1)C(=O)N[C@@H](CO)C(=O)N[C@@H](CCCNC(=N)N)C(=O)N[C@H](C(=O)N1CCC[C@H]1C(=O)N[C@@H](Cc1ccccc1)C(=O)N1C2CCCCC2C[C@H]1C(=O)O)C(C)C (stereo partly specified) | 5.1 | 6.9 | 224 | 172 |
| CCCC[C@H](N)C(=O)N1CCC[C@H]1C(=O)NC1(C(=O)N[C@@H](Cc2cnc[nH]2)C(=O)N[C@@H](CO)C(=O)N[C@@H](CCCNC(=N)N)C(=O)N[C@H](C(=O)N2CCC[C@H]2C(=O)N[C@@H](Cc2ccccc2)C(=O)N2CCC[C@H]2C(=O)O)C(C)C)CCCC1 (H-[Nle]P[Ac5c]HSRVPFP-OH) | 2.4 | 1.2 | 70 | 79 |
| CCCC[C@H](N)C(=O)N1CCC[C@H]1C(=O)N[C@@H](CC(C)C)C(=O)N[C@@H](Cc1cnc[nH]1)C(=O)N[C@@H](CO)C(=O)N[C@@H](CCCNC(=N)N)C(=O)N[C@H](C(=O)N1CCC[C@H]1C(=O)N[C@@H](CCc1ccccc1)C(=O)N1CCC[C@H]1C(=O)O)C(C)C | 9.3 | 4 | 128 | 151 |
| CCCC[C@H](N)C(=O)N1CCC[C@H]1C(=O)N[C@@H](CC(C)C)C(=O)N[C@@H](Cc1cnc[nH]1)C(=O)N[C@@H](CO)C(=O)N[C@@H](CCCNC(=N)N)C(=O)N[C@@H](Cc1ccccc1)C(=O)N1CCC[C@H]1C(=O)N[C@@H](Cc1ccccc1)C(=O)N1CCC[C@H]1C(=O)O (H-[Nle]PLHSRFPFP-OH) | 18 | 14 | 314 | 533 |
| CCCC[C@H](N)C(=O)N1CCC[C@H]1C(=O)N[C@@H](CC(C)C)C(=O)N[C@@H](Cc1cnc[nH]1)C(=O)N[C@@H](CO)C(=O)N[C@@H](CCCNC(=N)N)C(=O)N[C@H](C(=O)N1CCC[C@H]1C(=O)N[C@@H](Cc1ccc2ccccc2c1)C(=O)N1CCC[C@H]1C(=O)O)C(C)C (H-[Nle]PLHSRVP[2Nal]P-OH) | 16 | 7 | 152 | 155 |
| CCCC[C@H](N)C(=O)N1CCC[C@H]1C(=O)N[C@@H](CC(C)C)C(=O)N[C@@H](Cc1cnc[nH]1)C(=O)N[C@@H](CO)C(=O)N[C@@H](CCCNC(=N)N)C(=O)N[C@H](C(=O)N1CCC[C@H]1C(=O)N[C@@H](Cc1ccccc1)C(=O)N[C@@H](CC(C)C)C(=O)O)C(C)C (H-[Nle]PLHSRVPFL-OH) | 20 | 4.6 | 525 | 149 |
| CCCC[C@H](N)C(=O)N1CCC[C@H]1C(=O)N[C@@H](CC1CCCCC1)C(=O)N[C@@H](Cc1cnc[nH]1)C(=O)N[C@@H](CO)C(=O)N[C@@H](CCCNC(=N)N)C(=O)N[C@H](C(=O)N1CCC[C@H]1C(=O)N[C@@H](Cc1ccccc1)C(=O)N1CCC[C@H]1C(=O)O)C(C)C (H-[Nle]P[Cha]HSRVPFP-OH) | 4 | 2.8 | 94 | 120 |
| CCCC[C@H](N)C(=O)N1CCC[C@H]1C(=O)N[C@@H](CC(C)C)C(=O)N[C@@H](Cc1cnc[nH]1)C(=O)N[C@@H](CO)C(=O)N[C@@H](CCCNC(=N)N)C(=O)N[C@H](C(=O)N1CCC[C@H]1C(=O)N[C@H](CCC(=O)O)Cc1ccccc1)C(C)C (H-[Nle]PLHSRVP-γ4hPhe) | 8.9 | 5.8 | 198 | 175 |
| CCCC[C@H](N)C(=O)N1CCC[C@H]1C(=O)N[C@@](C)(Cc1ccccc1)C(=O)N[C@@H](Cc1cnc[nH]1)C(=O)N[C@@H](CO)C(=O)N[C@@H](CCCNC(=N)N)C(=O)N[C@H](C(=O)N1CCC[C@H]1C(=O)N[C@@H](Cc1ccccc1)C(=O)N1CCC[C@H]1C(=O)O)C(C)C (H-[Nle]P[αMeF]HSRVPFP-OH) | 25 | 6.4 | 515 | 189 |
| CCCC[C@H](N)C(=O)N1CCC[C@H]1C(=O)N[C@@](C)(CC(C)C)C(=O)N[C@@H](Cc1cnc[nH]1)C(=O)N[C@@H](CO)C(=O)N[C@@H](CCCNC(=N)N)C(=O)N[C@H](C(=O)N1CCC[C@H]1C(=O)N[C@@H](Cc1ccccc1)C(=O)N1CCC[C@H]1C(=O)O)C(C)C | 1.1 | 1.1 | 74 | 88 |
| CCCC[C@H](N)C(=O)N1CCC[C@H]1C(=O)N[C@@H](CC(C)C)C(=O)N[C@@H](Cc1cnc[nH]1)C(=O)N[C@@H](CO)C(=O)N[C@@H](CCCNC(=N)N)C(=O)N[C@H](C(=O)N1CCC[C@H]1C(=O)N[C@H](CC(=O)O)c1ccccc1)C(C)C (H-[Nle]PLHSRVP-β3hPhg) | 228 | – | – | – |
| CCCC[C@H](N)C(=O)N1CCC[C@H]1C(=O)N[C@@H](CC(C)C)C(=O)N[C@@H](Cc1cnc[nH]1)C(=O)N[C@@H](CO)C(=O)N[C@@H](CCCNC(=N)N)C(=O)N[C@H](C(=O)N1CCC[C@H]1C(=O)N[C@@H](Cc1ccccc1)C(=O)N1C[C@H](O)C[C@H]1C(=O)O)C(C)C | 76 | – | – | – |
| CCCC[C@H](N)C(=O)N1CCC[C@H]1C(=O)N[C@@H](CC(C)C)C(=O)N[C@@H](Cc1cnc[nH]1)C(=O)N[C@@H](CO)C(=O)N[C@@H](CCCNC(=N)N)C(=O)N[C@H](C(=O)N1CCC[C@H]1C(=O)N[C@@H](Cc1ccccc1)C(=O)N1CCC[C@@]1(Cc1ccccc1)C(=O)O)C(C)C (H-[Nle]PLHSRVPF[X1]-OH) | 916 | – | – | – |
